Experimental data published in BindingDB's records for patent US9018255 (Instytut Chemii Organicznej Polskiej Akademii Nauk, 2015).

Target: T1, Thioredoxin (Homo sapiens, UniProt P10599)
T1 sequence (P10599 whole entry): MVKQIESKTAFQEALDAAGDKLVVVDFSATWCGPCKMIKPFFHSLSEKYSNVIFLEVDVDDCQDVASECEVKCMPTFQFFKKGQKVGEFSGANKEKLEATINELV
Assay: In vitro Assay
Conditions: pH 7.6
Procedure: The method of determining thioredoxin activity is based on the reduction of insulin by thioredoxin. Thioredoxin is reconstituted is by thioredoxin reductase, with NADPH. The resulting free thiol -SH groups react with 5,5′-dithiobis-2-nitrobenzoic acid (DTNB). The termination of the reaction results in the formation of a […]. […] The reaction was performed at 37° C. over 30 min. in a buffer containing 50 mM Tris-HCl and 20 mM EDTA at a pH of 7.6.

IC50: 8.6 µM
SMILES: C=C(COC(=O)c1c(C(F)(F)F)cccc1C(F)(F)F)C(=O)NCc1ccccc1 [US9018255, 8a]
